From patent US20040229898A1, “Cyclic bis-compounds clearing malformed proteins” (priority 2001, published 2004)
Entries after “also recorded” stand apart in the source; their conditions may differ. Read-outs that look alike come from different tables or passages of the source.

Assays:
N2a cells = assay: Cell viability assay (MTT) in uninfected N2a cells; format: cell-based, mouse; conditions: for % Cell Viability (±SEM) 50 nM / % Cell Viability (±SEM) 200 nM / % Cell Viability (±SEM) 500 nM: seven days, N2a, MTT, versus untreated control; for % Cell Viability (±SEM) 500 nM / Cytotoxicity for uninfected neuroblastoma (N2a) cells, in words: 500 nM
Procedure: Uninfected N2a cells were identically seeded onto six-well plates containing MEM (3 mL, supplemented as above). […] Medium was exchanged, together with the compound, every three days. After seven days, thiazolyl blue (300 μL, MTT, 3-[4,5-dimethylthiazol-2-yl]-2,5-diphenyltetrazolium bromide, Sigma-Aldrich) in PBS (5 mgmL^−1), previously sterile filtered, was added. Cells were incubated at 37° C. for 5 h. The medium was removed, and DMSO (3 mL) was added and repeatedly aspirated to solubilize the converted dye.

PrP^Sc in ScGT1 cells = PrP^Sc in ScGT1 cells (Mus musculus, UniProt P04925); format: cell-based
MRC-5 fibroblast cells = conditions: cited from earlier work
[1] = patients, cited from earlier work
neuroblastoma cells = conditions: mouse

PrP^Sc in ScGT1 cells, sequence (P04925 23-230 limits assumed): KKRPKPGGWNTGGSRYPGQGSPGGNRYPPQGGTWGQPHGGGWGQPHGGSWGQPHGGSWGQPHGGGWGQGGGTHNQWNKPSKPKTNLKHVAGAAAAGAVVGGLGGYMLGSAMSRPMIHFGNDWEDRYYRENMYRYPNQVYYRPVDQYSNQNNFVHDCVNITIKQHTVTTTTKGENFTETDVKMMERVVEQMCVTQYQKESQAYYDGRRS

## COc1ccc2nc3cc(Cl)ccc3c(NCCCCN(CCCNc3c4ccc(Cl)cc4nc4ccc(OC)cc34)C(=O)CNC(=O)[C@H](C)NC(=O)OC(C)(C)C)c2c1 [Compound 19]
N2a cells
  % Cell Viability (±SEM) 50 nM: 88(±18) %
  % Cell Viability (±SEM) 200 nM: 78(±13) %
  % Cell Viability (±SEM) 500 nM: 70(±12) %

## COc1ccc2nc3cc(Cl)ccc3c(NCCCCN(CCCNc3c4ccc(Cl)cc4nc4ccc(OC)cc34)C(=O)CNC(=O)[C@H](C)N)c2c1 [Compound 18]
N2a cells
  % Cell Viability (±SEM) 50 nM: 96(±4) %
  % Cell Viability (±SEM) 200 nM: 93(±1) %
  % Cell Viability (±SEM) 500 nM: 0(±1) %

## COc1ccc2nc3cc(Cl)ccc3c(NCCNCCCNCCNc3c4ccc(Cl)cc4nc4ccc(OC)cc34)c2c1 [Compound 8]
N2a cells
  % Cell Viability (±SEM) 50 nM: 100(±13) %
  % Cell Viability (±SEM) 200 nM: 23(±10) %
  % Cell Viability (±SEM) 500 nM: 1(±1) %

## COc1ccc2nc3cc(Cl)ccc3c(NCCNCCNc3c4ccc(Cl)cc4nc4ccc(OC)cc34)c2c1 [Compound 5]
N2a cells
  % Cell Viability (±SEM) 50 nM: 100(±20) %
  % Cell Viability (±SEM) 200 nM: 100(±9) %
  % Cell Viability (±SEM) 500 nM: 100(±18) %

## COc1ccc2nc3cc(Cl)ccc3c(NCCCCCCCCNc3c4ccc(Cl)cc4nc4ccc(OC)nc34)c2n1 [Compound 21, N,N′-Bis-(7-chloro-2-methoxy-benzo[b][1,5]naphthyridin-10-yl)-octane-1,8-diamine]
N2a cells
  % Cell Viability (±SEM) 50 nM: 95(±3) %
  % Cell Viability (±SEM) 200 nM: 100(±6) %
  % Cell Viability (±SEM) 500 nM: 96(±5) %
other
  melting point: 114 to 115 °C

## COc1ccc2nc3cc(Cl)ccc3c(NCCCN3CCN(CCCNc4c5ccc(Cl)cc5nc5ccc(OC)cc45)CC3)c2c1 [Compound 11, (6-chloro-2-methoxy-acridin-9-yl)-(3-{4-[3-(6-chloro-2-methoxy-acridin-9-ylamino)-propyl]-piperazin-1-yl}-propyl)-amine]
N2a cells
  % Cell Viability (±SEM) 50 nM: 94(±11) %
  % Cell Viability (±SEM) 200 nM: 89(±9) %
  Cytotoxicity for uninfected neuroblastoma (N2a) cells, in words: not cytotoxic
  % Cell Viability (±SEM) 500 nM: 79(±1) %
PrP^Sc in ScGT1 cells; 100 nM to 500 nM, Western blot
  reduction of PrP^Sc in ScGT1 cells, in words: dose-dependent manner
PrP^Sc in ScGT1 cells; 0.5 μM or 1.0 μM, one week
  curing of ScGT1 cells after one-week incubation: could be cured of PrP^Sc; also recorded: absence of PK-resistant PrP
PrP^Sc in ScGT1 cells; cured cells incubated with prion inoculum
  re-infection of cured ScGT1 cells with prion inoculum: could subsequently be re-infected; also recorded: decrease the capacity of ScGT1 cells to be re-infected; also recorded: PrP^Sc was detected
MRC-5 fibroblast cells
  cytotoxicity to MRC-5 fibroblast cells versus non-constrained polyamine-linked bis-acridines (e.g., 7): less cytotoxic

## COc1ccc2nc3cc(Cl)ccc3c(NCCCCCCCCNc3c4ccc(Cl)cc4nc4ccc(OC)cc34)c2c1 [Compound 3]
N2a cells
  % Cell Viability (±SEM) 50 nM: 100(±4) %
  % Cell Viability (±SEM) 200 nM: 100(±2) %
  % Cell Viability (±SEM) 500 nM: 97(±6) %

## COc1ccc2nc3cc(Cl)ccc3c(NCCCNCCCNc3c4ccc(Cl)cc4nc4ccc(OC)cc34)c2c1 [Compound 6]
N2a cells
  % Cell Viability (±SEM) 50 nM: 98(±5) %
  % Cell Viability (±SEM) 200 nM: 33(±1) %
  % Cell Viability (±SEM) 500 nM: 1(±1) %

## COc1ccc2nc3cc(Cl)ccc3c(NCCCCNc3c4ccc(Cl)cc4nc4ccc(OC)cc34)c2c1 [Compound 1]
N2a cells
  % Cell Viability (±SEM) 50 nM: 100(±9) %
  % Cell Viability (±SEM) 200 nM: 100(±9) %
  % Cell Viability (±SEM) 500 nM: 100(±6) %

## COc1ccc2nc3cc(Cl)ccc3c(NCCCCCCNc3c4ccc(Cl)cc4nc4ccc(OC)cc34)c2c1 [Compound 2]
N2a cells
  % Cell Viability (±SEM) 50 nM: 90(±3) %
  % Cell Viability (±SEM) 200 nM: 96(±3) %
  % Cell Viability (±SEM) 500 nM: 82(±3) %

## COc1ccc2nc3cc(Cl)ccc3c(NCCCN(C)CCCNc3c4ccc(Cl)cc4nc4ccc(OC)cc34)c2c1 [Compound 14]
N2a cells
  % Cell Viability (±SEM) 50 nM: 73(±2) %
  % Cell Viability (±SEM) 200 nM: 59(±8) %
  % Cell Viability (±SEM) 500 nM: 1(±1) %

## COc1ccc2nc3cc(Cl)ccc3c(NCCOCCOCCNc3c4ccc(Cl)cc4nc4ccc(OC)cc34)c2c1 [Compound 13, N,N′-Bis-(6-chloro-2-methoxy-acridin-9-yl)-1,8-diamino-3,6-dioxaoctane]
N2a cells
  % Cell Viability (±SEM) 50 nM: 97(±8) %
  % Cell Viability (±SEM) 200 nM: 90(±9) %
  Cytotoxicity for uninfected neuroblastoma (N2a) cells, in words: not cytotoxic
  % Cell Viability (±SEM) 500 nM: 98(±11) %

## CCCN(CCCCNc1c2ccc(Cl)cc2nc2ccc(OC)cc12)CCCNc1c2ccc(Cl)cc2nc2ccc(OC)cc12 [Compound 15, N-(6-Chloro-2-methoxy-acridin-9-yl)-N′-[3-(6-chloro-2-methoxy-acridin-9-ylamino)-propyl]-N′-propyl-butane-1,4-diamine]
N2a cells
  % Cell Viability (±SEM) 50 nM: 100(±5) %
  % Cell Viability (±SEM) 200 nM: 77(±4) %
  % Cell Viability (±SEM) 500 nM: 0(±1) %

## COc1ccc2nc3cc(Cl)ccc3c(NCCCCNCCCNc3c4ccc(Cl)cc4nc4ccc(OC)nc34)c2n1.Cl [Compound 20]
N2a cells
  % Cell Viability (±SEM) 50 nM: 100(±15) %
  % Cell Viability (±SEM) 200 nM: 100(±9) %
  Cytotoxicity for uninfected neuroblastoma (N2a) cells, in words: nontoxic
  % Cell Viability (±SEM) 500 nM: 88(±8) %

## COc1ccc2nc3cc(Cl)ccc3c(NCCCCN(CCCNc3c4ccc(Cl)cc4nc4ccc(OC)cc34)C(=O)C(C)NC(=O)OC(C)(C)C)c2c1 (stereo not drawn) [Compound 17, (1-{[4-(6-chloro-2-methoxy-acridin-9-ylamino)-butyl]-[3-(6-chloro-2-methoxy-acridin-9-ylamino)-propyl]-carbamoyl}-ethyl)-carbamic acid tert-butyl ester]
N2a cells
  % Cell Viability (±SEM) 50 nM: 98(±12) %
  % Cell Viability (±SEM) 200 nM: 85(±6) %
  Cytotoxicity for uninfected neuroblastoma (N2a) cells, in words: not cytotoxic
  % Cell Viability (±SEM) 500 nM: 84(±3) %

## COc1ccc2nc3cc(Cl)ccc3c(NCCCCN(CCCNc3c4ccc(Cl)cc4nc4ccc(OC)cc34)C(=O)[C@H](C)N)c2c1 [Compound 16]
N2a cells
  % Cell Viability (±SEM) 50 nM: 100(±22) %
  % Cell Viability (±SEM) 200 nM: 59(±13) %
  % Cell Viability (±SEM) 500 nM: 0(±1) %

## COc1ccc2nc3cc(Cl)ccc3c(NCCCCCCCCCCNc3c4ccc(Cl)cc4nc4ccc(OC)cc34)c2c1 [Compound 4]
N2a cells
  % Cell Viability (±SEM) 50 nM: 99(±21) %
  % Cell Viability (±SEM) 200 nM: 95(±21) %
  % Cell Viability (±SEM) 500 nM: 90(±17) %

## COc1ccc2nc3cc(Cl)ccc3c(NCCCNCCCNCCCNc3c4ccc(Cl)cc4nc4ccc(OC)cc34)c2c1.Cl [Compound 9]
N2a cells
  % Cell Viability (±SEM) 50 nM: 92(±7) %
  % Cell Viability (±SEM) 200 nM: 16(±7) %
  % Cell Viability (±SEM) 500 nM: 10(±2) %

## CSc1ccc2c(c1)N(CCC1CCCCN1C)c1ccccc1S2 (stereo not drawn) [thioridazine]
[1]; 300 mg daily
  brain concentration: 20 µM
[1]; daily oral dosage of 800 mg, post mortem brain samples
  brain concentration: more than 80 μM

## CN(C)CCCN1c2ccccc2Sc2ccc(Cl)cc21 [chlorpromazine]
Neuroblastoma cells
  decrease in cell population: 50%
